The compounds below were run on PC12 cells (assay: PC12 cell survival under serum deprivation (CellTiter-Glo)). Conditions: 72 h serum-free; NS = RLU increased <25% at 5 uM.
Assay type: cell-based, rat
Protocol: Each culture condition was performed in quadruplicate in each experiment and the mean values were calculated. The results represent mean±SEM of relative light unit values when compared to the mean values obtained in the presence of the medium alone. A total of 13 experiments were performed and the statistical significance was analyzed using GraphPad Prism software using ANOVA, followed by paired t-test. The symbol * indicates P-values <0.01.
PC12 cells were cultured in DMEM supplemented with 10% fetal calf serum and 5% horse serum. […] Cell viability was analyzed by CellTiter-Glo® reagent (Promega).
PC12 cells were cultured in DMEM supplemented with 10% fetal calf serum and 5% horse serum. […] Cell survival of the serum-starved cells was analyzed by CellTiter-Glo® reagent luminescence reading.
FIG. 2 illustrates neuroprotective effects of Compounds 1-5 when tested in PC12 cell protection assays. PC12 cells were subjected to serum deprivation as described under FIG. 1.
PC12 cells were cultured in DMEM supplemented with 10% fetal calf serum and 5% horse serum. […] Cell survival of the serum-starved cells was analyzed by CellTiter-Glo® reagent luminescence reading (relative light units, “RLU”). […] “NS” indicates RLU increased <25% when compounds were tested at 5 uM.
In the case of `Cc1cc(C)n2nc(SCCOc3ccncc3)nc2n1` [Example 31, 4-[2-({5,7-dimethyl-[1,2,4]triazolo[1,5-a]pyrimidin-2-yl}sulfanyl)ethoxy]pyridine], the “PC12 cell proliferation (CellTiter-Glo ®) Concentration at which RLU increased >25% compared to medium control” value is reported as “NS (RLU increased <25% when compounds were tested at 5 uM)”.
With `Cc1cc(C)n2nc(SCCOc3ccc(CCN(C)C)cc3)nc2n1` [Example 32, (2-{4-[2-({5,7-dimethyl-[1,2,4]triazolo[1,5-a]pyrimidin-2-yl}sulfanyl)ethoxy]phenyl}ethyl)-dimethylamine] the “PC12 cell proliferation (CellTiter-Glo ®) Concentration at which RLU increased >25% compared to medium control” value was “NS (RLU increased <25% when compounds were tested at 5 uM)”.
With `Cc1cc(C)n2nc(SCCOC3CCCCC3)nc2n1` [Example 33, 2-{[2-(cyclohexyloxy)ethyl]sulfanyl}-5,7-dimethyl-[1,2,4]triazolo[1,5-a]pyrimidine] the “PC12 cell proliferation (CellTiter-Glo ®) Concentration at which RLU increased >25% compared to medium control” value was “NS (RLU increased <25% when compounds were tested at 5 uM)”.

Same assay, conditions: Rattus norvegicus, PC-12; 72 h serum-free; NS = RLU increased <25% at 5 uM; read-out: PC12 cell proliferation (CellTiter-Glo ®) Concentration at which RLU increased >25% compared to medium control
For `Cc1cc(C(F)(F)F)n2nc(CCCOc3ccc(Cl)cc3)nc2n1` [Example 22, 2-[3-(4-chlorophenoxy)propyl]-5-methyl-7-(trifluoromethyl)-[1,2,4]triazolo[1,5-a]pyrimidine], the minimal effective concentration was < 5 µM.
`Cc1cc(C(F)(F)F)n2nc(SCCOc3ccc(Cl)cc3)nc2n1` [Example 23, 2-{[2-(4-chlorophenoxy)ethyl]sulfanyl}-5-methyl-7-(trifluoromethyl)-[1,2,4]-triazolo[1,5-a]pyrimidine] was tested, and the minimal effective concentration was < 5 µM.
With `FC(F)(F)c1cc(C(F)(F)F)n2nc(SCCOc3ccc(Cl)cc3)nc2n1` [Example 24, 2-{[2-(4-chlorophenoxy)ethyl]sulfanyl}-5,7-bis(trifluoromethyl)-[1,2,4]-triazolo[1,5-a]pyrimidine] the minimal effective concentration was < 5 µM.
In the case of `Clc1ccc(OCCSc2nc3ncccn3n2)cc1` [Example 25, 2-{[2-(4-chlorophenoxy)ethyl]sulfanyl}-[1,2,4]-triazolo[1,5-a]pyrimidine], the minimal effective concentration is reported as < 5 µM.
`Cc1ccn2nc(SCCOc3ccc(Cl)cc3)nc2n1` [Example 26, 2-{[2-(4-chlorophenoxy)ethyl]sulfanyl}-5-methyl-[1,2,4]triazolo[1,5-a]pyrimidine] was tested, and the minimal effective concentration was < 5 µM.
In the case of `Cc1ccnc2nc(SCCOc3ccc(Cl)cc3)nn12` [Example 27, 2-{[2-(4-chlorophenoxy)ethyl]sulfanyl}-7-methyl-[1,2,4]-triazolo[1,5-a]pyrimidine], the minimal effective concentration is reported as < 5 µM.
For `CC(C)c1cc(C(C)C)n2nc(CCCOc3ccc(F)cc3)nc2n1` [Example 29, 2-[3-(4-fluorophenoxy)propyl]-5,7-bis(propan-2-yl)-[1,2,4]triazolo[1,5-a]pyrimidine], the minimal effective concentration was < 5 µM.
`Fc1ccc(OCCCc2nc3nc(C(F)F)cc(C(F)F)n3n2)cc1` [Example 30, 5,7-bis(difluoromethyl)-2-[3-(4-fluorophenoxy)propyl]-[1,2,4]triazolo[1,5-a]pyrimidine] was tested, and the minimal effective concentration was < 5 µM.
For `Cc1cc(C)n2nc(SCCc3c[nH]c4ccccc34)nc2n1` [Example 34, 3-[2-({5,7-dimethyl-[1,2,4]triazolo[1,5-a]pyrimidin-2-yl}sulfanyl)ethyl]-1H-indole], the minimal effective concentration was < 5 µM.
With `Cc1cc(C)n2nc(OCCSc3ccc(Cl)cc3)nc2n1` [Example 35, 2-{2-[(4-chlorophenyl)sulfanyl]ethoxy}-5,7-dimethyl-[1,2,4]triazolo[1,5-a]pyrimidine] the minimal effective concentration was < 5 µM.
